Measurements as given in PubChem BioAssay (NCI).
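The compound was tested at five concentrations on cells cultured in 96-well plates, with a 48-hour exposure period. TGI: total growth inhibition.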

What was measured:
Test in all cases: DTP human tumour cell line panel, 48 h
SK-OV-3 ovarian = test system: SK-OV-3 ovarian
UACC-257 melanoma = test system: UACC-257 melanoma
KM12 colon = test system: KM12 colon
OVCAR-5 ovarian = test system: OVCAR-5 ovarian
HCT-116 colon = test system: HCT-116 colon
UO-31 renal = test system: UO-31 renal
SN12C renal = test system: SN12C renal
IGROV1 ovarian = test system: IGROV1 ovarian
MDA-MB-231 breast = test system: MDA-MB-231 breast
OVCAR-8 ovarian = test system: OVCAR-8 ovarian
CAKI-1 renal = test system: CAKI-1 renal
T-47D breast = test system: T-47D breast
HT29 colon = test system: HT29 colon
MDA-MB-435 = test system: MDA-MB-435
SK-MEL-28 melanoma = test system: SK-MEL-28 melanoma
ACHN renal = test system: ACHN renal
SR leukemia = test system: SR leukemia
SK-MEL-2 melanoma = test system: SK-MEL-2 melanoma
NCI-H460 lung = test system: NCI-H460 lung
BT-549 breast = test system: BT-549 breast
NCI/ADR-RES ovarian = test system: NCI/ADR-RES ovarian
LOX IMVI melanoma = test system: LOX IMVI melanoma
RXF 393 renal = test system: RXF 393 renal
MDA-N = test system: MDA-N
SK-MEL-5 melanoma = test system: SK-MEL-5 melanoma
SW-620 colon = test system: SW-620 colon
PC-3 prostate = test system: PC-3 prostate
EKVX NSCLC = test system: EKVX NSCLC
SNB-75 CNS = test system: SNB-75 CNS
NCI-H23 lung = test system: NCI-H23 lung
TK-10 renal = test system: TK-10 renal
M14 melanoma = test system: M14 melanoma
NCI-H522 lung = test system: NCI-H522 lung
CCRF-CEM leukemia = test system: CCRF-CEM leukemia
A498 renal = test system: A498 renal
HOP-62 NSCLC = test system: HOP-62 NSCLC
OVCAR-3 ovarian = test system: OVCAR-3 ovarian
A549 NSCLC = test system: A549 NSCLC
SF-268 CNS = test system: SF-268 CNS
MCF7 breast = test system: MCF7 breast
HCT-15 colon = test system: HCT-15 colon
K-562 leukemia = test system: K-562 leukemia
HCC-2998 colon = test system: HCC-2998 colon
SF-295 CNS = test system: SF-295 CNS
HOP-92 NSCLC = test system: HOP-92 NSCLC
UACC-62 melanoma = test system: UACC-62 melanoma
OVCAR-4 ovarian = test system: OVCAR-4 ovarian
SNB-19 CNS = test system: SNB-19 CNS
SF-539 CNS = test system: SF-539 CNS
NCI-H226 lung = test system: NCI-H226 lung
COLO 205 colon = test system: COLO 205 colon
MOLT-4 leukemia = test system: MOLT-4 leukemia
786-0 renal = test system: 786-0 renal
U251 CNS = test system: U251 CNS
DU-145 prostate = test system: DU-145 prostate
HL-60(TB) leukemia = test system: HL-60(TB) leukemia
MALME-3M melanoma = test system: MALME-3M melanoma
RPMI-8226 leukemia = test system: RPMI-8226 leukemia
HS 578T breast = test system: HS 578T breast

Measured: TGI

C=Cc1ccccc1C1C(C(=O)OCC)=C(C)N=C2OC(C(=O)OC)C(=O)N21 (centres undefined)
not listed: HS 578T breast
> 100 µM: all other assays above

O=C(O)c1ccccc1/C=C1\Cc2ccccc2C1=O
not listed: SK-OV-3 ovarian | MDA-MB-231 breast | HOP-92 NSCLC
> 100 µM: all other assays above
